Patent publication US5312831A, “Urethanes and ureas that induce cytokine production” (American Cyanamid Company, priority 1993, dated 1994)

Assays:
[1] = tested on: bone marrow progenitor cells; test: Delta assay: expansion of bone marrow progenitor cells in vitro, with c-kit ligand (KL); type: cell-based, mouse; conditions: KL alone, 7 day in vitro incubation; medium alone 0
Experimental: Delta Assay--Mice are treated with a single dose of 5-FU (150 mg/kg ip). Twenty-four hours later, bone marrow cells are removed and split into 2 aliquots. […] After 14 days, the number of colonies is determined (CFU-1). A second aliquot of cells is placed in liquid culture with single growth factors or drugs or combinations of each to assess the ability of these agents to expand the colony forming cell pool. After 7 days in liquid culture, these cells are harvested and plated in soft agar with IL-1 and GM-CSF as with the first aliquot. After 14 days the number of colonies in the second aliquot is determined (CFU-2). The ratio or delta is calculated as CFU-2/CFU-1 and this ratio is used to ascertain the ability of the growth factors and/or drugs used in the liquid phase to induce growth of the colony forming cells (CFU) or differentiation of pre-CFU to CFU.
Bone marrow cells from 5-FU treated mice are used to enrich for early progenitor cells. The cells are split into 2 aliquots as described in the methods section for the "delta assay." The fold increase is determined by measuring the effect of a 7 day in vitro incubation of the cells with tissue culture medium plus test compound and/or growth factor KL on colony forming dells (CFU). The number of CFUs are then compared with colony formation of the fresh bone marrow cells that were not incubated in vitro to determine the fold increase. Test compound is used in vitro at 0.5 μg/ml.

[2] = tested on: IL-6; test: Serum IL-6 production in mice after single s.c. injection (7TD1 bioassay); type: in vivo, mouse; conditions: serum 4 h post injection
Experimental: Description of Biological Assays Interleukin 6(IL-6) assay for structure function analysis--Test compounds are dissolved in water and administered subcutaneously in 0.2 ml to deliver a dose of 0.1-10 mg/kg. The less soluble compounds are first dissolved in 100% ethanol and then brought to the appropriate concentration in water. Four hours post injection, the mice are bled and the serum is retrieved. The IL-6 dependent cell line 7TDl is used to assay serial dilutions of sera for IL-6 content. 7TDl cells (1×10^4) are placed in microtiter wells and incubated at 37° C. for 72 hours with standard recombinant mouse IL-6 or with dilutions of serum to be tested. Over the last 6 hours, the cells are pulsed with ^3 H-Tdr (μci). Cells are then harvested and the degree of proliferation determined by the uptake of ^3 H-Tdr as measured by liquid scintillation spectrometry. The concentration of IL-6 in serum is calculated from standard curves utilizing recombinant IL-6 from R&D Systems Inc. and are reported in units of IL-6 activity as defined by the manufacturer.

[3] = tested on: CSF; test: Serum colony stimulating factor (CSF) assay in mice; type: in vivo, mouse; conditions: serum 4 hours after injection
Experimental: Colony forming assays Granulocyte-Macrophage (CFU-GM)--Mice are treated with 150 mg/kg of 5-Fu and treatment with test compound begins 24 hrs. later. On consecutive days, mice are killed by cervical dislocation and the femurs removed under sterile conditions. Femurs are flushed with 1 ml of ice cold medium (Iscove's supplemented with 20% FCS, 1% penicillin-streptomycin, 1% glutamine and 5×10^-5 M 2-mercaptoethanol). Bone marrow cells (5×10^5) are then plated in 12×75 mm tissue culture plates in 3 ml of warm ararose (3%) in Iscove's medium with 100 Units/ml of recombinant mouse GM-CSF purchased from Genzyme (Boston, Mass.). Plates are incubated for 7 days at 37° C. in 5% CO2. After 7 days, colonies of 50 cells or greater are enumerated under a dissecting microscope.
Bone marrow cells are prepared as described above for the CFU-GM assay. The cells are then incubated in soft agar with an 0.3% final concentration of serum taken from mice 4 hours after injection with test compounds. After 7 days of incubation at 37° C., the number of colony forming (CFU) cells per 10^5 plated bone marrow cells is determined by counting colonies of more than 50 cells under a dissecting microscope. The data are reported as CFU/10^5 bone marrow cells.

[4] = tested on: neutrophils; test: Neutrophil recovery in 5-FU treated mice; type: in vivo, mouse; conditions: mouse, in vivo
Experimental: (§1) Circulating Neutrophil Assay--Mice are treated with 5-FU (150 mg/kg) and beginning 24 hrs. later, treated daily with the test compound. Mice are bled daily by retroorbital puncture in heparinized capillary tubes. Circulating WBC counts are determined by Coulter counter. Blood smears are stained with Wright-Geimsa solution and the percentage circulating neutrophils determined by differential counting under a microscope.
(§2) 5-Fluorouracil (5-FU) Induced Neutropenia In Mice--Mice are treated ip with 150 mg/kg of the chemotherapy agent 5-FU which induces a severe loss of neutrophils in the peripheral blood 5-6 days later. Twenty-four hrs. after the dose, treatment with the test compounds is initiated. The effect of the test compounds on recovery of neutrophil progenitor cells in the bone marrow is determined by the CFU-GM assay. The recovery of circulating neutrophils is followed by differential staining of the peripheral blood.
*Data from 10 mice/group on day 7 post treatment with 150 mg/kg of 5FU.
Beginning 24 hrs. after 5FU dose, mice were treated daily with test
compound at concentrations indicated. Neutrophil count for normal mice (n
**Mice treated with 5FU and vehicle only.

[5] = tested on: neutrophils; test: Neutrophil recovery in cytoxan treated primates; type: in vivo, cynomolgous monkeys; conditions: for Absolute Neutrophil Count/cu. mm. of Blood: Cytoxan + Ex. 32 (50 μg/kg daily s.c.)
Experimental: Groups of 4 cynomolgous monkeys are treated on day 1 and day 0 with
cytoxan at 60 mg/kg. Beginning 24 hours after the second cytoxan dose, on
group is treated daily s.c. with 50 μg/kg of test compound and the
other with vehicle (water) only.
*p < 0.05 versus cytoxan only control by Student's t test.

[6] = tested on: neutrophils; test: Oral dosing: neutrophil recovery in 5-FU treated mice; type: in vivo, mouse; conditions: for Neutrophils/cu. mm.: day 7 post 5FU, 0 dose 67 ± 22
Experimental: as §1, §2
Groups of 5 mice are treated with 150 mg/kg of 5-FU. One day later, daily oral dosing with test compounds begins and continues for 10 days. […]

[7] = tested on: neutrophils; test: Neutrophil recovery in 5-FU treated mice; type: in vivo, mouse; conditions: day 8 post 5FU, 0 dose 144 ± 36
[8] = tested on: CSF; conditions: literature; cited from earlier work
[9] = tested on: bone marrow; conditions: myelosuppression caused by chemotherapy or radiation; literature; cited from earlier work

KL: hemopoietic growth factor c-kit ligand (KL)
Fold Increase in CFU [1]: 66 fold

CCCCCCC(=O)N[C@H](COC(=O)N[C@@H](CCC[C@@H](N)C(=O)O)C(=O)N[C@H](C)C(=O)O)C(=O)O [Example 32, (R)-N-[(R)-6-carboxy-N^2-[[2-carboxy-2-[(1-oxoheptyl)amino]ethoxy]carbonyl]-L-lysyl]-D-Alanine]
IL-6 ([2]; 0.1 mg/kg s.c.): 1340 ± 134 U/ml
IL-6 ([2]; 1.0 mg/kg s.c.): 1797 ± 284 U/ml
CSF production, CFU/100,000 Bone Marrow Cells ([3]; 0.1 mg/kg): 154 ± 5 CFU/100,000 Bone Marrow Cells
CSF production, CFU/100,000 Bone Marrow Cells ([3]; 1.0 mg/kg): 137 ± 15 CFU/100,000 Bone Marrow Cells
neutrophil recovery in 5-FU treated mice (in words) [4]: induce neutrophil recovery in 5-FU treated mice
Absolute Neutrophil Count/cu. mm. of Blood ([5]; day 0 after cytoxan, cytoxan only 3640 ± 1058): 3554 ± 1194 /cu. mm. of Blood
Absolute Neutrophil Count/cu. mm. of Blood ([5]; day 1 after cytoxan, cytoxan only 4900 ± 971): 7849 ± 1592 /cu. mm. of Blood
Absolute Neutrophil Count/cu. mm. of Blood ([5]; day 2 after cytoxan, cytoxan only 2689 ± 156): 4679 ± 867 /cu. mm. of Blood
Absolute Neutrophil Count/cu. mm. of Blood ([5]; day 3 after cytoxan, cytoxan only 1935 ± 126): 1080 ± 264 /cu. mm. of Blood
Absolute Neutrophil Count/cu. mm. of Blood ([5]; day 4 after cytoxan, cytoxan only 1442 ± 344): 370 ± 171 /cu. mm. of Blood
Absolute Neutrophil Count/cu. mm. of Blood ([5]; day 5 after cytoxan, cytoxan only 856 ± 295): 455 ± 208 /cu. mm. of Blood
Absolute Neutrophil Count/cu. mm. of Blood ([5]; day 6 after cytoxan, cytoxan only 1009 ± 292): 518 ± 218 /cu. mm. of Blood
Absolute Neutrophil Count/cu. mm. of Blood ([5]; day 7 after cytoxan, cytoxan only 852 ± 301): 1304 ± 1046 /cu. mm. of Blood
Absolute Neutrophil Count/cu. mm. of Blood ([5]; day 8 after cytoxan, cytoxan only 542 ± 233): 1596 ± 1000 /cu. mm. of Blood
Absolute Neutrophil Count/cu. mm. of Blood ([5]; day 9 after cytoxan, *p < 0.05 versus cytoxan only 441 ± 194): 2041 ± 423 /cu. mm. of Blood
Absolute Neutrophil Count/cu. mm. of Blood ([5]; day 10 after cytoxan, cytoxan only 1244 ± 509): 3506 ± 1130 /cu. mm. of Blood
Absolute Neutrophil Count/cu. mm. of Blood ([5]; day 11 after cytoxan, cytoxan only 2053 ± 1002): 4576 ± 673 /cu. mm. of Blood
Absolute Neutrophil Count/cu. mm. of Blood ([5]; day 12 after cytoxan, cytoxan only 1885 ± 678): 3761 ± 1394 /cu. mm. of Blood
Absolute Neutrophil Count/cu. mm. of Blood ([5]; day 13 after cytoxan, cytoxan only 3502 ± 2297): 3751 ± 1278 /cu. mm. of Blood
Absolute Neutrophil Count/cu. mm. of Blood ([5]; day 14 after cytoxan, cytoxan only 3816 ± 1674): 3106 ± 520 /cu. mm. of Blood
recovery of neutrophils in cytoxan treated primates (in words) ([5]; monkey, in vivo): accelerates the recovery of neutrophils
recovery to control levels ([5]; versus a day 10 recovery for the cytoxan only group): ≤ 7 days
Neutrophils/cu. mm. ([6]; 1 mg/kg daily oral): 547 ± 232 /cu. mm
Neutrophils/cu. mm. ([6]; 10 mg/kg daily oral): 1844 ± 814 /cu. mm
neutrophil recovery in 5-FU treated mice when given orally (in words) ([6]; oral): active in accelerating neutrophil recovery
Neutrophils/cu. mm. ([7]; 100 μg/kg daily): 982 ± 150 /cu. mm.
Neutrophils/cu. mm. ([7]; 1000 μg/kg daily): 1892 ± 293 /cu. mm.

pimelautide
formation of CSF (in words) [8]: appear to induce the formation of CSF
bone marrow restoration after myelosuppression (in words) [9]: can aid in bone marrow restoration

muroctasin
formation of CSF (in words) [8]: appear to induce the formation of CSF
bone marrow restoration after myelosuppression (in words) [9]: can aid in bone marrow restoration
